The record followed here is ChEMBL document CHEMBL1201862, “PubChem BioAssay data set” (2004).

Assay [1] is described as follows: half-maximal inhibitory concentration for glucagon-like peptide-1 release, STC-1 cell line, dose-response (AID 1117345). Type of assay: functional, cell-based.
Assay [2] is described as follows: Glucagon-like peptide 1 release potency, NCI-H716 cell line, dose-response, half-maximal inhibitory concentration (AID 1117344). In kind it is functional, cell-based.
The nature of assay [3]: A549 cell cytotoxicity, dose response, cytotoxicity control, 24 h, CellTiter-Glo luminescence, cherry-picks (AID 1053115). Type of assay: functional, cell-based. Particulars: A549, 24 h. (In general: In ATP-based viability assays light output follows the ATP content of the culture.)
The nature of assay [4]: inhibitors of non-replicating M. tuberculosis, dose response, luciferase, dry powder (AID 651619). Particulars: Mycobacterium tuberculosis. Type of assay: functional.
Assay [5] in a line: cytotoxicity in HepG2 cells, dose response, cytotoxicity control, cell-based, plate reader, dry powder (AID 651947). In kind it is functional.
The nature of assay [6]: inhibitors of non-replicating M. tuberculosis, dose response, luciferase, dry powder (AID 651620). Particulars: Mycobacterium tuberculosis. In kind it is functional.
Assay [7] concerns the target Metabotropic glutamate receptor 7 (Homo sapiens, UniProt Q14831). Kind of assay: mGlu7 positive allosteric modulators, dose response, cell-based, calcium mobilization, Galpha15 (AID 743384). Type of assay: functional. For orientation: A change in cytosolic calcium serves as a functional read-out for many receptors and channels.
The nature of assay [8]: HeLa 2N DNA content increase, dose response, cell-based, IC50 (AID 1117349). Type of assay: functional.
Assay [9] can be described thus: Concentration-dependent survival of SW480 colon cancer line, luminescence detection with CellTiter-Glo, half-maximal inhibitory concentration (AID 1117338). Type of assay: functional.
Assay [10] in a line: HCT116 cell viability decrease, GSK3B pretreatment – CellTiter-Glo, IC50, dose response (AID 1117339). In kind it is functional. To be noted: HCT-116.
Assay [11] is described as follows: cytotoxicity toward HCT116 cells – cell-based, CellTiter-Glo luminescence, IC50, dose response (AID 1117332). To be noted: HCT-116. In kind it is functional.
The nature of assay [12]: RKO cell viability reduction, dose response, CellTiter-Glo luminescence (AID 1117322). Type of assay: functional.
Assay [13] is described as follows: cytotoxicity toward HT-29 cells – cell-based, CellTiter-Glo luminescence, IC50, dose response (AID 1117330). In kind it is functional.
A short description of assay [14]: cytotoxicity toward Colo320 cells – cell-based, CellTiter-Glo luminescence, IC50, dose response (AID 1117334). Type of assay: functional. Particulars: COLO 320.
The nature of assay [15]: CellTiter-Glo luminescent dose response of DLD-1 viability loss (AID 1117352). Type of assay: functional.
Assay [16] can be described thus: SNU-C1 cell viability reduction, dose response, CellTiter-Glo luminescence (AID 1117323). In kind it is functional, cell-based.
Assay [17] is described as follows: HeLa 4N DNA content increase, dose response, cell-based, IC50 (AID 1117351). In kind it is functional.
Assay [18] is described as follows: Dose-response inhibition of insulin secretion in a rat insulinoma line at 5 mM glucose (AID 1117331). In kind it is functional, cell-based. Particulars: INS-1E.
Assay [19] is described as follows: cells. In kind it is functional, cell-based. To be noted: INS-1E.

Counter-ions that a name gives are not always drawn. Activity calls are given as the source filed them. Rule as the data show it, for most assays here: active = IC50 of 5 µM or less and inactive = more. Some results are limits rather than exact numbers.

Chain of Metabotropic glutamate receptor 7 (Q14831 whole entry): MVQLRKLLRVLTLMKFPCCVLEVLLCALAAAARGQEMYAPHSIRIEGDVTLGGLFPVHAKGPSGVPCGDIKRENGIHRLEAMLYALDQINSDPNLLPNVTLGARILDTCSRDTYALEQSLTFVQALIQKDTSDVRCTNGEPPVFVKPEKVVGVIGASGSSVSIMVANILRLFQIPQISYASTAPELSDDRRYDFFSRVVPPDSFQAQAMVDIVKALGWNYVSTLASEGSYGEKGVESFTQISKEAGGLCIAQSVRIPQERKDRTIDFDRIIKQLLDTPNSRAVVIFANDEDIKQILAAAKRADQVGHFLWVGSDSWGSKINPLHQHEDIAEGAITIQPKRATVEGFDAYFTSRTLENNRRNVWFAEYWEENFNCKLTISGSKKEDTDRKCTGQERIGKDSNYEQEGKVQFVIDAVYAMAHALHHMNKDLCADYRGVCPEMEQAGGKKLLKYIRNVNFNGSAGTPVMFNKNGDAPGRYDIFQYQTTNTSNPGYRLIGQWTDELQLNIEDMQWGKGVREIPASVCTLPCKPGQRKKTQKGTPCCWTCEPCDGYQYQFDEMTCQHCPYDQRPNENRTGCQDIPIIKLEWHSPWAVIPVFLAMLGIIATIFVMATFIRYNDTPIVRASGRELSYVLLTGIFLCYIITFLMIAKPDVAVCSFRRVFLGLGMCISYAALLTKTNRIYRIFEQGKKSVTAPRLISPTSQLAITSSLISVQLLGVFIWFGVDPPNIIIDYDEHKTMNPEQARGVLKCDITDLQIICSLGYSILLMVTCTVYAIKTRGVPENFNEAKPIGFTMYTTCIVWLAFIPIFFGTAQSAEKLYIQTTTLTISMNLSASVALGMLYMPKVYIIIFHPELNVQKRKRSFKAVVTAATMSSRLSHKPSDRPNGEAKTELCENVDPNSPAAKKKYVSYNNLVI

Turning to `Cc1cc(OCCOCC[N+](C)(C)Cc2ccccc2)ccc1C(C)(C)CC(C)(C)C`, the IC50 – broadly, the point on the concentration scale where inhibition reaches its midpoint – in [1] is > 40 µM (inactive); in assay [2] it was 12 µM (inactive).
Take `C[C@@H]1CCCCO[C@@H](CN(C)S(=O)(=O)c2ccc(Cl)cc2)[C@@H](C)CN([C@@H](C)CO)C(=O)c2cc(NC(=O)Nc3ccc(F)cc3)ccc2O1`: the AC50 (as a rule, the midpoint of the concentration-response curve, whichever way the signal moves) in assay [3] was 51.4 µM (active).
With `Fc1ccc(Cn2cc(CSc3nnc(-c4ccc(F)cc4)o3)nn2)cc1`, the IC90 in assay [4] and in assay [6] was 1 µM (active) each time. Further, in assay [5], the AC50 was 30.8 µM (active).
As to `CC(=O)Nc1ccc(SCC(=O)c2cc(C)n(-c3nc(C)cs3)c2C)cc1`, the EC50 (commonly the concentration that produces a half-maximal response) in [7] is 10 µM (active).
Regarding `CCCCC(CC)CNC(=N)NC(=N)NCCCCCCNC(=N)NC(=N)NCC(CC)CCCC` (centres undefined) [ALEXIDINE DIHYDROCHLORIDE], the IC50 in assay [8] is > 10 µM (inactive); in assay [9], 0.333 µM (active); in assay [10], 0.396 µM (active); in assay [11], 0.71 µM (active); in assay [12], 0.223 µM (active); in assay [13] it was 0.0302 µM (active). Also, the IC50 was 0.0041 µM (active) in assay [14], 0.0197 µM (active) in assay [15], 0.0941 µM (active) in [16] and > 10 µM (inactive) in [17].
`CC(C)[C@H]1CC[C@H](C(=O)N[C@H](Cc2ccccc2)C(=O)O)CC1` [NATEGLINIDE]: the IC50 in [18] is 7.07 µM (inactive); in [19] it was > 33.3 µM (inactive).
